Data taken from ChEMBL document CHEMBL1201862, “PubChem BioAssay data set” (2004).
Active and inactive are the calls of the source.

Assays:
Cytochrome P450 2C9 = Cytochrome P450 2C9 (Homo sapiens, UniProt P11712)
[1] = DRD fibroblast viability loss – cell-based, non-viral oncogenic, luminescence, dose response (AID 1934); type: functional; conditions: Homo sapiens
BJ [2] = assay: BJ-TERT-LT-ST fibroblast viability loss – cell-based, RAS-independent, luminescence, dose response (AID 1935); type: functional; conditions: Homo sapiens;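 note: BJ fibroblasts immortalized with TERT plus LT and ST oncogenes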
[3] = fluconazole-exposed Candida albicans growth modulators – fluorescence, retest, confirmation (AID 2467); type: functional, cell-based
[4] = molecular target: T1, DNA repair protein RAD52 homolog (Homo sapiens, UniProt P43351); type: functional, biochemical
T1 sequence (P43351 whole entry): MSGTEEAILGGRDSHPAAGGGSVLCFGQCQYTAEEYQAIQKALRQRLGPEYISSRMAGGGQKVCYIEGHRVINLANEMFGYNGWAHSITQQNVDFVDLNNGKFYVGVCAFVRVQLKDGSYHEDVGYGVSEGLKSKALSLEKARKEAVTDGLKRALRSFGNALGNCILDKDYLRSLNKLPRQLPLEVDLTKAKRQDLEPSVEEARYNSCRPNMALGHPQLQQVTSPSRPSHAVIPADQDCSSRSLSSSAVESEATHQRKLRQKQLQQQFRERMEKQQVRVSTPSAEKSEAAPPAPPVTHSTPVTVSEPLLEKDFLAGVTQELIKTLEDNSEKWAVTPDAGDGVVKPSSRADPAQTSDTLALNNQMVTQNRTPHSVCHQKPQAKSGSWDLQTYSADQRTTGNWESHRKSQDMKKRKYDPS

BJ [5] = assay: BJ-TERT fibroblast viability loss – cell-based, RAS-independent, luminescence, dose response (AID 1933); type: functional; conditions: Homo sapiens
BJ [6] = assay: cells; type: functional, cell-based; conditions: Homo sapiens
[7] = NIH-3T3 fibroblast cytotoxicity, dose response, cytotoxicity control, cell-based, fluorescence, Alamar Blue, secondary assay (AID 2327); type: functional;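 note: NIH-3T3 mouse fibroblasts cultured with fluconazole at 8 µg/mL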
BJ [8] = assay: growth inhibition of engineered Ras-driven BJ cells – cell-based, alamar blue fluorescence, cherrypicked samples, dose response (AID 2631); type: functional; conditions: Homo sapiens;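 note: confirmatory dose-response assay in RAS-dependent BJ fibroblasts engineered with TERT, LT and ST, with cytotoxicity read by fluorescence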
Aminopeptidase N = molecular target: T2, Aminopeptidase N (Plasmodium falciparum FcB1/Columbia, UniProt O96935); assay: malaria alanyl aminopeptidase activity blockers – biochemical, fluorogenic H-Leu-NHMec substrate, 1536-well (AID 1445); design: species or system Plasmodium falciparum 3D7, 3D7
T2 sequence (O96935 whole entry): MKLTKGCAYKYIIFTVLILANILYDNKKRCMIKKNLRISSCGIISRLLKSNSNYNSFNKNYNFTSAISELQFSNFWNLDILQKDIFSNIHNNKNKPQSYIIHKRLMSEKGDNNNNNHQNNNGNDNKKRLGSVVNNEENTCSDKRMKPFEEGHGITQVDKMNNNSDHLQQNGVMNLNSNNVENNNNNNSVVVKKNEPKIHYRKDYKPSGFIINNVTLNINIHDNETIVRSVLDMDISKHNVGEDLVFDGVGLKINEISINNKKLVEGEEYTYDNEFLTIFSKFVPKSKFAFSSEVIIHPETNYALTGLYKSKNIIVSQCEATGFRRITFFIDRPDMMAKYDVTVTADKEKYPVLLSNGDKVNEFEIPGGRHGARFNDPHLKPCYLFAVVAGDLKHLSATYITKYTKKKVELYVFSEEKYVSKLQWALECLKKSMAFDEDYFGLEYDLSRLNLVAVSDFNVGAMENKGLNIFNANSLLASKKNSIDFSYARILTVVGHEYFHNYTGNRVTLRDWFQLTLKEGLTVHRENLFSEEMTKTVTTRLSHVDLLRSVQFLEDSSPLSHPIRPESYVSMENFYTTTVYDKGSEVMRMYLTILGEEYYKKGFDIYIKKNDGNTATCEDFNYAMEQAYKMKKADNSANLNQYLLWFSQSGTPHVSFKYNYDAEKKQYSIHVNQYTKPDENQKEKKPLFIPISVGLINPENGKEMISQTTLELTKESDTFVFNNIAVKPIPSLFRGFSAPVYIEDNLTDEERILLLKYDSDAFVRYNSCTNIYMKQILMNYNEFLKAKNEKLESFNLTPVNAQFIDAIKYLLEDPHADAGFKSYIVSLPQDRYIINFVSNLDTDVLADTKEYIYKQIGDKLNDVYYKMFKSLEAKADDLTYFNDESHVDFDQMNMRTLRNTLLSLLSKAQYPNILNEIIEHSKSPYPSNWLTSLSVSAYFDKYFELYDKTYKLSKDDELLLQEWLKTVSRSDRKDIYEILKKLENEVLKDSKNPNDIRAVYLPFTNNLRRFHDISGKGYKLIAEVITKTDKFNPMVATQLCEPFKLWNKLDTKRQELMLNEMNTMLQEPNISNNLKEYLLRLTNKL

Vero [9] = assay: cells; type: functional, cell-based; conditions: Chlorocebus sabaeus
Vero [10] = assay: cells; type: functional; conditions: Chlorocebus sabaeus
[11] = viability of PTEN-deleted HCT116 cells – cell-based, HCT116 PTEN knockout, dose response (AID 1047); type: functional;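 note: HCT116 colon tumor cells with PTEN knocked out; cells exposed to compound for 60 hours before readout; potency for loss of cell viability measured by luminescence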
[12] = viability of HCT116 lacking mutant beta-catenin – cell-based, human colon tumor, dose response (AID 1045); type: functional;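 note: HCT116 colon tumor cells with beta catenin knocked out; cells exposed to compound for 60 hours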
[13] = molecular target: Ras and Rab interactor 1/Tyrosine-protein kinase ABL1 (Homo sapiens, UniProt P00519+Q13671); type: functional;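 note: biochemical TR-FRET dose-response test measuring inhibition of binding between Rin1 and Abl proteins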
Chain of Ras and Rab interactor 1/Tyrosine-protein kinase ABL1 (P00519 whole entry): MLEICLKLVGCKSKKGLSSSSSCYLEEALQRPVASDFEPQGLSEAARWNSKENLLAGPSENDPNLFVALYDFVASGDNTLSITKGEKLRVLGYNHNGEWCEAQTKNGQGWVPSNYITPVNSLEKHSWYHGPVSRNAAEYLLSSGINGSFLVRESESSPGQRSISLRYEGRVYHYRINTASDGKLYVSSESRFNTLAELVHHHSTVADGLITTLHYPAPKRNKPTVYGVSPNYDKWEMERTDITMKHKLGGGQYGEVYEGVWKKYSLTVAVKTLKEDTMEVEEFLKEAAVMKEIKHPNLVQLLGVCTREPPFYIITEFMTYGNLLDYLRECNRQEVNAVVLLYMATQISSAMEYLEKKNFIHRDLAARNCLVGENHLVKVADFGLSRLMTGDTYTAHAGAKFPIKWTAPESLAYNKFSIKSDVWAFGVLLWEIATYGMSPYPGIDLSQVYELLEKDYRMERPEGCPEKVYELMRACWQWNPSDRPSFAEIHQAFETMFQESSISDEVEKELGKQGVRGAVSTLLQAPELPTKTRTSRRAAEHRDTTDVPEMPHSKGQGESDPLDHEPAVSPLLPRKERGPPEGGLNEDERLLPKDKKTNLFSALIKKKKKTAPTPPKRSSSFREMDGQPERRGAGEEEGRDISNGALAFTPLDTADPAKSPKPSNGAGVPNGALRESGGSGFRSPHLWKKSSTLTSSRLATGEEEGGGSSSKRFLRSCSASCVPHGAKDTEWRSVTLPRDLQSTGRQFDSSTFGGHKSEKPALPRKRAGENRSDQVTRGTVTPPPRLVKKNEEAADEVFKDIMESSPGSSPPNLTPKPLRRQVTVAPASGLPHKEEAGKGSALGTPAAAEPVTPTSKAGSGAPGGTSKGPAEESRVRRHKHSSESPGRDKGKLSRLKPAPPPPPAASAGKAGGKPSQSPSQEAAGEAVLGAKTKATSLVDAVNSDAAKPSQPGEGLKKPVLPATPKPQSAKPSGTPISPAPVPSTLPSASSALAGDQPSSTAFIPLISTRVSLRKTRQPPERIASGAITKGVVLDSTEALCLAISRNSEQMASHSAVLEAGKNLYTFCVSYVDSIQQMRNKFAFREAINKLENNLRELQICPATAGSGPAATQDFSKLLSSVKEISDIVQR
Chain of Ras and Rab interactor 1/Tyrosine-protein kinase ABL1 (Q13671 whole entry): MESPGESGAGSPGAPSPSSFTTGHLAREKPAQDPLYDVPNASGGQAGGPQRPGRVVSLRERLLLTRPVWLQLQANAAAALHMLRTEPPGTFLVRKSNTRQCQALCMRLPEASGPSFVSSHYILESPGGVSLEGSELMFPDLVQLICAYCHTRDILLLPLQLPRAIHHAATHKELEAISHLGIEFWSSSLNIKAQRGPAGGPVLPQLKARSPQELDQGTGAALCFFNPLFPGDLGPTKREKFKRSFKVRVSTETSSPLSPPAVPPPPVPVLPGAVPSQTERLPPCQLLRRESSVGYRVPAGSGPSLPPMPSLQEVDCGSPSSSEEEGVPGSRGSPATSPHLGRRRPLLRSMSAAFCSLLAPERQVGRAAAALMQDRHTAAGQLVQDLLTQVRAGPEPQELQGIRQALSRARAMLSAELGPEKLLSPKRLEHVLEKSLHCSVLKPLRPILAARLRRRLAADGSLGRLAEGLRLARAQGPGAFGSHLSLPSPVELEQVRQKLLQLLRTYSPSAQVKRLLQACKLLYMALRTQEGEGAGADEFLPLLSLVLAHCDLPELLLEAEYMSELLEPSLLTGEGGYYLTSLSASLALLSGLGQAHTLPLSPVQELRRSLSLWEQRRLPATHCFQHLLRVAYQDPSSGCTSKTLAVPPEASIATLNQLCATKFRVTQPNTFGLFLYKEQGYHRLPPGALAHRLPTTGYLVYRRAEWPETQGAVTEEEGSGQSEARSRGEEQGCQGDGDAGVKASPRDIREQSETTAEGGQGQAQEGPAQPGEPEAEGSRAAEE

[14] = decrease of insulin promoter-GFP reporter – imaging, high-content screening, mouse beta cells (AID 1628); type: functional; conditions: MIN6
[15] = NIH3T3 cell viability loss – ATP luminescence, mouse fibroblasts, counter-screen, dose response (AID 2010); type: functional, cell-based;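 note: cells exposed to compound for about 90 hours before reading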
[16] = Trypanosoma cruzi growth suppression in host cells – NIH3T3 host cells, beta-gal luminescence, confirmation (AID 2044); type: functional, cell-based;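 note: intracellular parasites grown in NIH/3T3 mouse fibroblasts as host cells; luminescent beta-galactosidase reporter signal from transgenic T. cruzi replicating inside host cells; inhibitors lower the luminescence signal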
[17] = MIN6 cell viability loss – mouse insulinoma, cytotoxicity control, dose response (AID 2122); type: functional;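 note: confirmatory high-throughput counterscreen run to flag cytotoxic compounds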
Cytochrome P450 3A4 = Cytochrome P450 3A4 (Homo sapiens, UniProt P08684);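 note: CYP3A4 tested as one member of a cytochrome P450 panel screen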
Chain of Cytochrome P450 3A4 (P08684 whole entry): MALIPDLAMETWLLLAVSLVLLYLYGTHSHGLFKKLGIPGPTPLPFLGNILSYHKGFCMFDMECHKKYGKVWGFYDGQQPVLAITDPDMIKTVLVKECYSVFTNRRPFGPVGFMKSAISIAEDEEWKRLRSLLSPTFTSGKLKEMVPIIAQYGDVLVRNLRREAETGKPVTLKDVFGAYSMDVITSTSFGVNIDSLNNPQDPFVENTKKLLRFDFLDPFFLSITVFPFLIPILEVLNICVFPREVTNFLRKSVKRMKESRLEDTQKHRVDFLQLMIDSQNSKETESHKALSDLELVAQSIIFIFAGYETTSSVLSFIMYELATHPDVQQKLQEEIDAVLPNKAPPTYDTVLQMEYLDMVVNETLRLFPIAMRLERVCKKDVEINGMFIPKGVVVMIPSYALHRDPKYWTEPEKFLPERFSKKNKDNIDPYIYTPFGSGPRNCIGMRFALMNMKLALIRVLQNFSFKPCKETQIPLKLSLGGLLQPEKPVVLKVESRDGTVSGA

Cytochrome P450 2C19 = Cytochrome P450 2C19 (Homo sapiens, UniProt P33261); assay: Cytochrome panel assay with activity outcomes. Panel member name: p450-cyp2c19 Compounds with AC50 equal or less than 10 uM are considered active; type: functional; conditions: read-out: AC50
Chain of Cytochrome P450 2C19 (P33261 whole entry): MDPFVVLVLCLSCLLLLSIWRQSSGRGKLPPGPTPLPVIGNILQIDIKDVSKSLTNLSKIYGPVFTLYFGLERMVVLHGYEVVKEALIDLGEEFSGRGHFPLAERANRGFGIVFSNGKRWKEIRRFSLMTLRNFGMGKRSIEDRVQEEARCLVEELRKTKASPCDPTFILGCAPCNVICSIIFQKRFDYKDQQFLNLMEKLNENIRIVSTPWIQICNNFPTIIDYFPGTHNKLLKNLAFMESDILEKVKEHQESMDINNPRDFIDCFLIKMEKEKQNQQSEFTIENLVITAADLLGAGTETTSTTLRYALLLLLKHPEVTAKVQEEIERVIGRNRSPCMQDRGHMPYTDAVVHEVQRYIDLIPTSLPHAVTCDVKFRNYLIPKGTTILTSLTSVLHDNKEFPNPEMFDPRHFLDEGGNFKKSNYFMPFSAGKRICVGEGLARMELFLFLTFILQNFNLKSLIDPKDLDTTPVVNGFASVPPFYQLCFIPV

Cytochrome P450 1A2 = molecular target: T3, Cytochrome P450 1A2 (Homo sapiens, UniProt P05177);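 note: PubChem cytochrome P450 panel assay, CYP1A2 panel member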
T3 sequence (P05177 whole entry): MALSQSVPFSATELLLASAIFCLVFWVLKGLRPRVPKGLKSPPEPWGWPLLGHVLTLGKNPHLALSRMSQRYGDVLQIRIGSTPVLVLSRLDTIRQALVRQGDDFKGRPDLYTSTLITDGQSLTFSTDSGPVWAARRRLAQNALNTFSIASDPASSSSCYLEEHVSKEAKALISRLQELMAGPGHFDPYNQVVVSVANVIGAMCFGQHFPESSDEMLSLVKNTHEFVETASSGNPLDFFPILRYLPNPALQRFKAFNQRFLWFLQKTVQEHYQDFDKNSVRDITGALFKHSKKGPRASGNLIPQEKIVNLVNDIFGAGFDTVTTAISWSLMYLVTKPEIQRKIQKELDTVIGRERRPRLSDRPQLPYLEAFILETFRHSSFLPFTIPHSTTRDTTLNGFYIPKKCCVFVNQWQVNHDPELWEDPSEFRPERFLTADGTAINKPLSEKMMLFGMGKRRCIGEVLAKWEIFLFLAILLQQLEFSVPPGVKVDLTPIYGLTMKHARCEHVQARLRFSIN

Protein Wnt-3a = Protein Wnt-3a (Mus musculus, UniProt P27467); assay: antagonism of Wnt3a pathway luciferase reporter – Wnt-LIGHT cells, luminescence, selectivity assay for Gli-SUFU antagonist project, dose response (AID 651570); type: functional; conditions: read-out: IC50_Mean;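 note: Wnt-LIGHT reporter cells stimulated with conditioned medium from Wnt3a-producing cells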
Chain of Protein Wnt-3a (P27467 whole entry): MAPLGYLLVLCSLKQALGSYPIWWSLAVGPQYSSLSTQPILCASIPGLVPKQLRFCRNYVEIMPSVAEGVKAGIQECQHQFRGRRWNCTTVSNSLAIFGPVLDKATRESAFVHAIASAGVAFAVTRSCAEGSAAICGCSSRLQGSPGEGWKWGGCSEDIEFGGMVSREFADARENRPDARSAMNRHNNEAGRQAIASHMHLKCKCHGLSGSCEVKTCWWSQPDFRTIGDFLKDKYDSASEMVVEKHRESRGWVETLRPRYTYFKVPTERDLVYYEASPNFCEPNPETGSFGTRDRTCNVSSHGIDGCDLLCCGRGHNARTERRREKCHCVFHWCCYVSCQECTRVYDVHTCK

[18] = Luminescence Cell-Based Dose Retest to Confirm Inhibitors of Cancer Stem Cells. [Related pubchem assays (depositor defined):AID2717, AID2721]; type: functional; conditions: Homo sapiens
[19] = loss of viability in HepG2 cells – cell-based, CellTiter-Glo, cherry-picked, cytotoxicity control for Shn3 inhibitor project, dose response (AID 624134); type: functional
[20] = reduction of Shn3 3'UTR-driven luciferase in osteoblasts – cell-based, Clone20 osteoblasts, firefly luciferase, cherry-picked, dose response (AID 624132); type: functional;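 note: firefly luciferase luminescence from reporter carrying the Shn3 3'UTR in osteoblasts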
INS1 = assay: INS-1E survival protection against cytokine death – cell-based, luminescence, retest, dose response (AID 449756); type: functional; conditions: Rattus norvegicus;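 note: cell death triggered by IL-1 beta plus TNF-alpha plus IFN-gamma mixture; protective hits raise ATP signal compared with cytokine alone wells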
[21] = non-specific 3'UTR reporter inhibition in Clone20-Shn3RL – cell-based, Renilla luciferase, cherry-picked, counter-screen for Shn3 inhibitor project, dose response (AID 624133); type: functional
HEK293 [22] = assay: inhibition of NOD1-driven NF-kB reporter – cell-based, luminescence, uHTS, primary screen (AID 1578); type: functional; conditions: Homo sapiens
[23] = THP-1 cell cytotoxicity, dose response, cytotoxicity control for non-replicating M. tuberculosis project (AID 489025); type: functional
cells = type: functional
HEK293 [24] = assay: NOD2 signaling inhibitors in MDP-stimulated cells, cell-based, uHTS, luminescence (AID 2001); type: functional; conditions: Homo sapiens
[25] = luciferase reporter signal suppression in cells – H4 neuroglioma cells, luminescence, dose response (AID 1990); type: functional, cell-based
HEK293 [26] = assay: cells; type: functional, cell-based; conditions: Homo sapiens
[27] = alpha-synuclein stem-loop luciferase translation blockers – H4 neuroglioma cells, luminescence, confirmation (AID 1988); type: functional, cell-based
[28] = Luminescence Cell-Based Dose Response HTS to Identify Inhibitors of 5'UTR Stem-Loop Driven Prion Protein mRNA Translation in H4 Neuroglioblastoma Cells. [Related pubchem assays: 1827 (Project Summary), 1813 (Primary HTS)]; type: functional
[29] = HepG2 cell cytotoxicity, dose response, cytotoxicity control for non-replicating M. tuberculosis project (AID 489018); type: functional; conditions: Mycobacterium tuberculosis
[30] = Vero E6 cell cytotoxicity, dose response, cytotoxicity control for non-replicating M. tuberculosis project, secondary assay (AID 492998); type: functional, VeroE6; conditions: Vero C1008
HEK293 [31] = assay: cells; type: functional, cell-based; conditions: Homo sapiens; remark: listed apart in the source

Chain of Cytochrome P450 2C9 (P11712 whole entry): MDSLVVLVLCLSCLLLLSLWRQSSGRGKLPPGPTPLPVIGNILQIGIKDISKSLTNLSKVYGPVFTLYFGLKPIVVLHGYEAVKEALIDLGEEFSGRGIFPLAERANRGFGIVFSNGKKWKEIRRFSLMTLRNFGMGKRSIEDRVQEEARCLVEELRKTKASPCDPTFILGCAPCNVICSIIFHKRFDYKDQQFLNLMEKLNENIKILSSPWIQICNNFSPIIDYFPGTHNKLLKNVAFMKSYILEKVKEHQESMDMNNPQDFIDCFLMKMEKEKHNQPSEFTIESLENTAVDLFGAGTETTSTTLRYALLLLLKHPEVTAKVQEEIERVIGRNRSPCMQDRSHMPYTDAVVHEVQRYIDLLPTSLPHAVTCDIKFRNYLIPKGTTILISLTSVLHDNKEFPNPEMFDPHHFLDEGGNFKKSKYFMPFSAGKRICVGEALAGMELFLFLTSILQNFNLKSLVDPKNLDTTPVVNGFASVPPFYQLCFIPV

## O=C(Nc1cccc2ccccc12)c1cn(-c2ccccc2)nc1-c1cccs1
Cytochrome P450 2C9
  AC50: inconclusive

## CCCCCCCCCC[n+]1cccc2c3ccccc3ccc21
[1]
  EC50: 8.72 µM (active)
BJ [2]
  EC50: 10.2 µM (active)
[3]
  EC50: 0.723 µM (active)
[4]
  AC50: 6.58 µM (active)
BJ [5]
  EC50: 2.78 µM (active)
BJ [6]
  EC50: 11.8 µM (active)
[7]
  EC50: > 150 µM (inactive)
BJ [8]
  EC50: 5.93 µM (active)
Aminopeptidase N
  IC50: 89.6 µM (active)

## CCc1ccc(C(=O)/C=C/c2ccc([N+](=O)[O-])o2)cc1
Vero [9]
  IC50: > 25 µM (active)
[1]
  EC50: 5.5 µM (inconclusive)
Vero [10]
  CC50: 12.3 µM (active)
BJ [2]
  EC50: 4.02 µM (inconclusive)
[11]
  EC50: 2.25 µM (active)
[12]
  EC50: 1.69 µM (active)
BJ [5]
  EC50: 5.72 µM (inconclusive)
BJ [6]
  EC50: > 150 µM (inconclusive)
BJ [8]
  EC50: 0.57 µM (active)

## CC12CCC(=O)N1C(C(=O)Nc1nnc(SCc3ccccc3F)s1)CS2 (stereo not given)
[13]
  IC50: 4.08 µM (active)

## Cc1cc(C)n(-c2nc(NCCC(C)C)c3c4c(sc3n2)COC(C)(C)C4)n1
[14]
  IC50: 3.09 µM (active)
[15]
  EC50: > 60 µM (not active)
[16]
  EC50: 1.64 µM (active)
[17]
  IC50: 2.26 µM (active)

## COc1ccc(NC(=O)CN(C)C(=O)Cc2ccc(S(=O)(=O)N3CCOCC3)s2)cc1
[13]
  IC50: 2.03 µM (active)

## Cc1cc(C)cc(-n2nnc(C(=O)NCc3ccccc3Cl)c2N)c1
Cytochrome P450 3A4
  AC50: 15.8 µM (inconclusive)
Cytochrome P450 2C19
  AC50: 3.16 µM (inconclusive)
Cytochrome P450 2C9
  AC50: inconclusive
Cytochrome P450 1A2
  AC50: 1.58 µM (inconclusive)

## O=C(c1cc(-c2ccco2)on1)N1CCOCC1
Cytochrome P450 2C9
  AC50: inconclusive
Cytochrome P450 1A2
  AC50: 0.0251 µM (inconclusive)

## Cc1ccccc1Cn1c(=N)n(CC(=O)c2ccco2)c2ccccc21
[14]
  IC50: 3.99 µM (active)
[17]
  IC50: 7.02 µM (active)

## O=C(N[C@H]1C/C=C\C[C@@H](CC(=O)N(CCO)Cc2ccccc2)C(=O)NC[C@H](c2ccccc2)OC1=O)OCC1c2ccccc2-c2ccccc21
Protein Wnt-3a
  IC50: 7.16 µM (active)
[18]
  AC50: 2.24 µM (active)

## CCn1/c(=N\C(=O)CCS(=O)(=O)c2ccccc2)sc2cccc(OC)c21
[19]
  AC50: > 70 µM (inactive)
Protein Wnt-3a
  IC50: 0.803 µM (active)
[20]
  AC50: 1.28 µM (active)
INS1
  AC50: 5.08 µM (active)
[21]
  AC50: 3.05 µM (active)

## O=C(N/N=C/c1cc(Br)c(Br)s1)c1ccncc1
HEK293 [22]
  EC50: > 20 µM (inactive)
[23]
  CC50: 6.79 µM (active)
cells
  IC50: 2.64 µM (active)
HEK293 [24]
  IC50: 17.9 µM (inactive)
[25]
  EC50: > 120 µM (not active)
HEK293 [26]
  IC50: 2.13 µM (active)
INS1
  AC50: 3.31 µM (active)
[27]
  EC50: 9.58 µM (active)
[28]
  EC50: 16.8 µM (active)
[29]
  CC50: 16.7 µM (active)
[30]
  CC50: 7.99 µM (active)
HEK293 [31]
  IC50: > 20 µM (inactive)

## CCn1c(C)nc2c1C(=O)c1ccccc1C2=O
Cytochrome P450 3A4
  AC50: 20 µM (inconclusive)
Cytochrome P450 2C19
  AC50: 20 µM (inconclusive)
Cytochrome P450 2C9
  AC50: inconclusive
